# Experimental data published in PubChem BioAssay AID743267 (Broad Institute, 2014).
# System: human bronchial epithelial cells, CFTR corrector, plate reader
# Test: rescue of ΔF508 CFTR function, airway epithelium – human bronchial epithelial cells, plate reader, cherry-pick, two tests, dose response (AID 743267)
# Details: measured here: test 1 replicate run
row,Compound,AC50
1,C[C@@H]1CN([C@H](C)CO)C(=O)c2cc(NS(=O)(=O)c3ccc(Cl)cc3)ccc2O[C@@H]1CN(C)Cc1ccc(-c2ccccc2)cc1,46.3 µM
2,COc1ccc(S(=O)(=O)N2CC[C@@H]3[C@@H](CO)Nc4ccc(-c5ccc(C#N)cc5)cc4[C@@H]32)cc1,1.57 µM
3,C[C@H]1CN([C@@H](C)CO)S(=O)(=O)c2ccc(-c3ccc(C#N)cc3)cc2O[C@@H]1CN(C)Cc1ccccn1,3.39 µM
4,O=C1CN(S(=O)(=O)Cc2ccccc2)C[C@@H]2[C@@H](c3ccc(C#Cc4cccc(F)c4)cc3)[C@H](CO)N12,16 µM
5,Cc1ccc(-c2ccc3c(c2)O[C@H](CN(C)C(=O)Nc2ccc(C(F)(F)F)cc2)[C@@H](C)CN([C@@H](C)CO)S3(=O)=O)cc1,> 50 µM
6,CN1c2ccc(-c3ccc(F)cc3)cc2[C@H]2[C@H](CCN2S(=O)(=O)c2cccc(F)c2)[C@H]1CO,4.41 µM

# Same assay, conditions: measured here: test 2 replicate run
row,Compound,AC50
1,COc1cc(-c2noc(C)c2C#Cc2ccsc2)cc(OC)c1OC,0.537 µM
2,COc1cccc2c1C(=O)c1c(O)c3c(c(O)c1C2=O)C[C@](O)(C(C)=O)C[C@H]3O[C@@H]1C[C@@H](N)[C@@H](O)[C@@H](C)O1,7.44 µM
3,COC(=O)c1cc(C(=O)N2CCN(c3cccc(Cl)c3)CC2)cc([N+](=O)[O-])c1,0.383 µM
4,Cc1cc(C(=O)N/N=C/c2ccc(N(C)C)cc2)c2ccccc2n1,5.44 µM
5,COc1ccccc1Cc1c(-c2ccc(Cl)cc2)nc2ccc(Br)cn12,8.16 µM
6,COc1ccc(S(=O)(=O)N2CCN(CCOc3ccccc3Cl)CC2)cc1OC,38.7 µM
7,COCCNC(=O)NC12CC3(C)CC(C)(CC(C)(C3)C1)C2,> 50 µM
8,COc1nc(-c2ccccc2)cc(-c2ccc3c(c2)OCO3)c1C#N,3.66 µM
9,CCCC(=O)Nc1ccc2c(c1)nc(CN1CCN(C(=O)OCC)CC1)n2CC,8.58 µM
10,Cc1cc(NC(=O)CN2C(=O)NC3(CCCCCC3)C2=O)ccc1Br,8.4 µM
11,COc1cc(/C=C(\C#N)c2nc3ccccc3[nH]2)cc(OC)c1O,7.88 µM
12,COc1nc(C)nc(NC(=O)NS(=O)(=O)c2ccccc2Cl)n1,> 50 µM
13,COc1ccccc1NC(=O)CSc1ccc(-c2ccccn2)nn1,20 µM
14,CN(CC(=O)NCCc1ccc(S(N)(=O)=O)cc1)CC(=O)Nc1ccc(Cl)c(C(F)(F)F)c1,27.9 µM
15,O=C(CCc1ccccc1)NCC(c1ccco1)N1CCc2ccccc21 (configuration not stated),4.6 µM
16,COc1ccc(NC(=O)c2nc(C)c(C3(C)CC(c4ccccc4)=NO3)s2)cc1 (configuration not stated),3.49 µM
17,COc1cccc(N=Nc2ccc3cccnc3c2O)c1,> 50 µM
18,Cc1cc(C(=O)CCC(=O)NC(C)c2ccc(S(N)(=O)=O)cc2)c(C)s1 (configuration not stated),> 50 µM
19,Cc1cc(C)c(/C=C2\C(=O)Nc3ccccc32)[nH]1,10.8 µM
20,COc1ccc(-c2csc(NC(=S)NC(=O)/C=C/c3ccco3)n2)cc1OC,2.19 µM
21,Clc1ccc(SCc2cc(N3CCOCC3)nc(-c3ccccn3)n2)cc1,4.5 µM
22,C=CCCC(=O)Nc1nc(C)c(-c2csc(Nc3cc(OC)ccc3OC)n2)s1,10.3 µM
23,O=S(=O)(Cc1ccc(Cl)cc1Cl)c1ccc(Cl)cc1,2.72 µM

row,Compound,AC50
1,COc1ccc(OC)c(C(=O)Cn2nnc(-c3ccc(N4CCOCC4)cc3)n2)c1,31.1 µM
2,COC1C(C)OC(OC2CC(C)(O)Cc3cc4c(c(O)c32)C(=O)c2c(O)cc3c(c2C4=O)OC2OC3(C)C(O)C(N(C)C)C2O)C(OC)C1(C)OC (configuration not stated),14.3 µM
3,COc1ccccc1N1CCN(C(=O)c2ccc(-c3ccc(Cl)cc3)o2)CC1,6.64 µM
4,NS(=O)(=O)c1ccc(NC(=O)c2cccc3cc4ccccc4nc23)cc1,4.75 µM
5,COc1cccc(N2CCN(C(=O)c3ccc(CS(=O)c4ccc(C)cc4)o3)CC2)c1 (configuration not stated),0.539 µM
6,COc1ccc(CCNc2c3ccccc3nc3ccccc23)cc1OC,3.9 µM
7,CCOc1ccc(-c2cc(C(=O)N/N=C/c3ccc(O)cc3)c3ccccc3n2)cc1,16 µM
8,COC(=O)c1ccc(C(=O)NC2CCCc3c2cnn3-c2ccc(C)c(C)c2)cc1 (configuration not stated),1.02 µM
9,COc1ccc(NC(=O)C(=O)NCC2CCCN2S(=O)(=O)c2cccs2)cc1 (configuration not stated),3.63 µM
10,Cc1nc(NCc2cccnc2)c2c3c(sc2n1)CCCC3,7.38 µM
11,Cc1occc1C(=O)N/N=C/c1c(O)ccc2ccccc12,1.84 µM
12,COc1cc(/C=C2/SC(=Nc3ccc(O)cc3)NC2=O)cc(OC)c1O,8.92 µM
13,O=C(CSC1=NCCN1)Nc1cccc([N+](=O)[O-])c1,14.1 µM
14,COC(=O)Cn1c(=NC(=O)c2cc(-c3cccs3)nc3ccccc23)sc2cc(S(N)(=O)=O)ccc21,> 50 µM
15,Nc1nn(-c2ccccc2)c(N)c1N=Nc1cccc(F)c1,2.04 µM
16,Cc1cc2c(cc1S(=O)(=O)Nc1ccc(F)cc1)n(C)c(=O)c(=O)n2C,43.2 µM
17,COc1ccc2noc3c2c1C(=O)c1ccccc1-3,19.1 µM
18,COc1ccc(-c2oc3ccc(-c4cc(OC)c(OC)c(OC)c4)cc3c2C#Cc2ccccn2)cc1,26.7 µM
19,CC(=O)Oc1c(C)cc(Cl)cc1C(=O)Nc1ccc([N+](=O)[O-])cc1Cl,1.38 µM
20,CCOc1ccccc1N1CCN(C(=O)c2cc3ccccc3cc2OC)CC1,3.45 µM
21,COc1ccc(C2CN=NC23CCc2ccccc2C3=O)cc1 (configuration not stated),38.9 µM
22,Nc1ccc(-c2c3ccc(=O)cc-3oc3cc(O)ccc23)cc1C(=O)O,7.85 µM
23,c1ccc2c(c1)C1=NCCN1c1ccccc1-2,2.93 µM
